{"source": "patent US20080176932A1", "about": "“Pharmaceutical Compositions Containing Baicalein And Baicalin With Synergistic Effect In Tumor Treatment” (priority 2005, published 2008)", "key": {"[1]": {"test_system": "human liver cancer cell line HepG2", "assay": "MTT growth inhibition, baicalein and baicalin single or combination", "assay_type": "cell-based", "text": "The results of experiments with human liver cancer cell line HepG2 are illustrated in Table 1;"}, "[2]": {"test_system": "Human colon cancer cell line HCT116", "assay": "MTT growth inhibition, baicalein and baicalin single or combination", "assay_type": "cell-based", "text": "Human colon cancer cell line HCT116—Table 2;"}, "[3]": {"test_system": "Human hung cancer cell line A549", "assay": "MTT growth inhibition, baicalein and baicalin single or combination", "assay_type": "cell-based", "text": "Human hung cancer cell line A549—Table 3;"}, "[4]": {"test_system": "Human gastric cancer cell line MKN28", "assay": "MTT growth inhibition, baicalein and baicalin single or combination", "assay_type": "cell-based", "text": "Human gastric cancer cell line MKN28—Table 4;"}, "[5]": {"test_system": "Human leukemia cell line HL60", "assay": "MTT growth inhibition, baicalein and baicalin single or combination", "assay_type": "cell-based", "text": "Human leukemia cell line HL60—Table 8."}, "[6]": {"test_system": "Murine melanoma cell line B 16", "assay": "Solid tumor transplant model, baicalein and baicalin", "assay_type": "in vivo", "conditions": "B16 mice, day 1-10; for Final Tumor WT. (g) Mean ± SD / Tumor Growth Inhibition %: day 15", "procedure": "C57BL/6 female mice (weight approximately 20 g) were used in this study. Murine melanoma cell line B 16 cells, 2×10^6 tumor cells were implanted s.c. into the armpit of each mice after two passenges in vitro cultured. On the next day after implantation, mice were randomly grouped at 10 per group and received 0.1 ml/10 g weight of the drugs. […] The number of mice of each group was 10. Mice were weighed before and post the treatment. Animals were killed on day 15, and the tumors were removed and weighted."}, "L1210 cells": {"test_system": "L1210 cells", "assay_type": "in vivo", "conditions": "day 1-10; for ILS(%) increase of life span: L1210 mice", "procedure": "L1210 cells on the growth phase were injected at 1×10^5 cells via I.P. into BDF1 female mice (weight approximately 20 g). The next day of implantation, mice were grouped, and received an injection of 0.1 ml/10 g weight of the drug. […] The number of mice of each group was 10. Mice were weighed before and after the treatment. Survival time of each mouse was recorded. The results of changes in increasing of life span of mice were used in assessment of response. The increase of life span was determined as; increase of life span rate=(median survival time of treated animals/median survival time of control animals−1)×100%, the data were analyzed by t-test."}, "[7]": {"test_system": "Human esophagus cancer cell line TE2"}, "[8]": {"test_system": "Human breast cancer cell line MCF-7"}, "[9]": {"test_system": "Human prostate cancer cell line PC3"}}, "note": "Where two headings read alike, the source gives them in different places.", "data": [{"smiles": "O=C(O)[C@H]1O[C@@H](Oc2cc3oc(-c4ccccc4)cc(=O)c3c(O)c2O)[C@H](O)[C@@H](O)[C@@H]1O", "note": "[BG, baicalin]", "values": [{"measurement": "Inhibition of cell growth (%)", "setting": "[1]; single dose 2.5 μm", "result": "16.63 ± 2", "unit": "%"}, {"measurement": "Inhibition of cell growth (%)", "setting": "[1]; single dose 5 μm", "result": "16.8 ± 2", "unit": "%"}, {"measurement": "Inhibition of cell growth (%)", "setting": "[1]; single dose 10 μm", "result": "34.93 ± 3.8", "unit": "%"}, {"measurement": "Inhibition of cell growth (%)", "setting": "[1]; single dose 20 μm", "result": "50 ± 2.9", "unit": "%"}, {"measurement": "Inhibition of cell growth (%)", "setting": "[1]; single dose 40 μm", "result": "86.69 ± 3", "unit": "%"}, {"measurement": "Inhibition of cell growth (%)", "setting": "[2]; single dose 2.5 μm", "result": "17 ± 2", "unit": "%"}, {"measurement": "Inhibition of cell growth (%)", "setting": "[2]; single dose 5 μm", "result": "20 ± 3.2", "unit": "%"}, {"measurement": "Inhibition of cell growth (%)", "setting": "[2]; single dose 10 μm", "result": "27 ± 3", "unit": "%"}, {"measurement": "Inhibition of cell growth (%)", "setting": "[2]; single dose 20 μm", "result": "33.75 ± 3", "unit": "%"}, {"measurement": "Inhibition of cell growth (%)", "setting": "[2]; single dose 40 μm", "result": "90 ± 2", "unit": "%"}, {"measurement": "Inhibition of cell growth (%)", "setting": "[3]; single dose 2.5 μm", "result": "9.8 ± 2", "unit": "%"}, {"measurement": "Inhibition of cell growth (%)", "setting": "[3]; single dose 5 μm", "result": "17 ± 3", "unit": "%"}, {"measurement": "Inhibition of cell growth (%)", "setting": "[3]; single dose 10 μm", "result": "30.58 ± 3.2", "unit": "%"}, {"measurement": "Inhibition of cell growth (%)", "setting": "[3]; single dose 20 μm", "result": "53.58 ± 4", "unit": "%"}, {"measurement": "Inhibition of cell growth (%)", "setting": "[3]; single dose 40 μm", "result": "92 ± 3", "unit": "%"}, {"measurement": "Inhibition of cell growth (%)", "setting": "[4]; single dose 2.5 μm", "result": "5.2 ± 2", "unit": "%"}, {"measurement": "Inhibition of cell growth (%)", "setting": "[4]; single dose 5 μm", "result": "12 ± 3", "unit": "%"}, {"measurement": "Inhibition of cell growth (%)", "setting": "[4]; single dose 10 μm", "result": "30.2 ± 2.9", "unit": "%"}, {"measurement": "Inhibition of cell growth (%)", "setting": "[4]; single dose 20 μm", "result": "62 ± 3.2", "unit": "%"}, {"measurement": "Inhibition of cell growth (%)", "setting": "[4]; single dose 40 μm", "result": "85.22 ± 2", "unit": "%"}, {"measurement": "Inhibition of cell growth (%)", "setting": "[5]; single dose 2.5 μm", "result": "5 ± 2", "unit": "%"}, {"measurement": "Inhibition of cell growth (%)", "setting": "[5]; single dose 5 μm", "result": "8.6 ± 3", "unit": "%"}, {"measurement": "Inhibition of cell growth (%)", "setting": "[5]; single dose 10 μm", "result": "21 ± 4", "unit": "%"}, {"measurement": "Inhibition of cell growth (%)", "setting": "[5]; single dose 20 μm", "result": "45.1 ± 2.9", "unit": "%"}, {"measurement": "Inhibition of cell growth (%)", "setting": "[5]; single dose 40 μm", "result": "82.7 ± 2.3", "unit": "%"}, {"measurement": "Final Tumor WT. (g) Mean ± SD", "setting": "[6]; BG 25 mg/kg i.p.", "result": "1.81 ± 0.1", "unit": "g"}, {"measurement": "Tumor Growth Inhibition %", "setting": "[6]; BG 25 mg/kg i.p.", "result": 16.97, "unit": "%"}, {"measurement": "Final Tumor WT. (g) Mean ± SD", "setting": "[6]; BG 50 mg/kg i.p.", "result": "1.77 ± 0.117", "unit": "g"}, {"measurement": "Tumor Growth Inhibition %", "setting": "[6]; BG 50 mg/kg i.p.", "result": 18.8, "unit": "%"}, {"measurement": "Final Tumor WT. (g) Mean ± SD", "setting": "[6]; BG 100 mg/kg i.p.", "result": "1.51 ± 0.11", "unit": "g"}, {"measurement": "Tumor Growth Inhibition %", "setting": "[6]; BG 100 mg/kg i.p.", "result": 30.7, "unit": "%"}, {"measurement": "Final Tumor WT. (g) Mean ± SD", "setting": "[6]; BG 200 mg/kg i.p.", "result": "1.28 ± 0.07", "unit": "g"}, {"measurement": "Tumor Growth Inhibition %", "setting": "[6]; BG 200 mg/kg i.p.", "result": 41.28, "unit": "%"}, {"measurement": "Weight Change %", "setting": "[6]; BG 25 mg/kg i.p.", "result": "<5", "unit": "%"}, {"measurement": "Weight Change %", "setting": "[6]; BG 50 mg/kg i.p.", "result": "<5", "unit": "%"}, {"measurement": "Weight Change %", "setting": "[6]; BG 100 mg/kg i.p.", "result": "<5", "unit": "%"}, {"measurement": "Weight Change %", "setting": "[6]; BG 200 mg/kg i.p.", "result": "<5", "unit": "%"}, {"measurement": "Number of mice Surviving through 15 days/total number", "setting": "L1210 cells; BG 25 mg/kg i.p.", "result": "10/10"}, {"measurement": "Number of mice Surviving through 15 days/total number", "setting": "L1210 cells; BG 50 mg/kg i.p.", "result": "10/10"}, {"measurement": "Number of mice Surviving through 15 days/total number", "setting": "L1210 cells; BG 100 mg/kg i.p.", "result": "10/10"}, {"measurement": "Number of mice Surviving through 15 days/total number", "setting": "L1210 cells; BG 200 mg/kg i.p.", "result": "10/10"}, {"measurement": "ILS(%) increase of life span", "setting": "L1210 cells; BG 25 mg/kg i.p.", "result": 17.3, "unit": "%"}, {"measurement": "ILS(%) increase of life span", "setting": "L1210 cells; BG 50 mg/kg i.p.", "result": 27.55, "unit": "%"}, {"measurement": "ILS(%) increase of life span", "setting": "L1210 cells; BG 100 mg/kg i.p.", "result": 38.27, "unit": "%"}, {"measurement": "ILS(%) increase of life span", "setting": "L1210 cells; BG 200 mg/kg i.p.", "result": 50, "unit": "%"}, {"measurement": "Inhibition of cell growth (%)", "setting": "[7]; single dose 2.5 μm", "result": "6.2 ± 1.8", "unit": "%"}, {"measurement": "Inhibition of cell growth (%)", "setting": "[7]; single dose 10 μm", "result": "28.2 ± 2.5", "unit": "%"}, {"measurement": "Inhibition of cell growth (%)", "setting": "[7]; single dose 20 μm", "result": "49.8 ± 1.78", "unit": "%"}, {"measurement": "Inhibition of cell growth (%)", "setting": "[7]; single dose 40 μm", "result": "72.7 ± 2.1", "unit": "%"}, {"measurement": "Inhibition of cell growth (%)", "setting": "[8]; single dose 2.5 μm", "result": "0.5 ± 2.7", "unit": "%"}, {"measurement": "Inhibition of cell growth (%)", "setting": "[8]; single dose 5 μm", "result": "10.2 ± 1", "unit": "%"}, {"measurement": "Inhibition of cell growth (%)", "setting": "[8]; single dose 10 μm", "result": "48.02 ± 2", "unit": "%"}, {"measurement": "Inhibition of cell growth (%)", "setting": "[8]; single dose 20 μm", "result": "60.35 ± 3", "unit": "%"}, {"measurement": "Inhibition of cell growth (%)", "setting": "[9]; single dose 2.5 μm", "result": "1 ± 3", "unit": "%"}, {"measurement": "Inhibition of cell growth (%)", "setting": "[9]; single dose 5 μm", "result": "17.9 ± 5", "unit": "%"}, {"measurement": "Inhibition of cell growth (%)", "setting": "[9]; single dose 10 μm", "result": "47 ± 8", "unit": "%"}, {"measurement": "Inhibition of cell growth (%)", "setting": "[9]; single dose 20 μm", "result": "62 ± 7", "unit": "%"}, {"measurement": "Inhibition of cell growth (%)", "setting": "[9]; single dose 40 μm", "result": "88 ± 7", "unit": "%"}]}]}
